Measurements taken from US7556938B1, “Nucleic acids encoding potassium channel interactors” (Millennium Pharmaceuticals, Inc., priority 1998, dated 2009).

Legend:
Format in all cases: cell-based
Kv4.2/KChIP1 = biological target: T1, Kv4.2/KChIP1 (Rattus norvegicus, UniProt Q63881); assay: AA modulation of Kv4.2/KChIP1 current in CHO cells; conditions: Kv4.2/KChIP1, 10 μM AA
T1 construct: expressed in transfected cells; host or cells: CHO cells
T1 sequence (Q63881 1-630): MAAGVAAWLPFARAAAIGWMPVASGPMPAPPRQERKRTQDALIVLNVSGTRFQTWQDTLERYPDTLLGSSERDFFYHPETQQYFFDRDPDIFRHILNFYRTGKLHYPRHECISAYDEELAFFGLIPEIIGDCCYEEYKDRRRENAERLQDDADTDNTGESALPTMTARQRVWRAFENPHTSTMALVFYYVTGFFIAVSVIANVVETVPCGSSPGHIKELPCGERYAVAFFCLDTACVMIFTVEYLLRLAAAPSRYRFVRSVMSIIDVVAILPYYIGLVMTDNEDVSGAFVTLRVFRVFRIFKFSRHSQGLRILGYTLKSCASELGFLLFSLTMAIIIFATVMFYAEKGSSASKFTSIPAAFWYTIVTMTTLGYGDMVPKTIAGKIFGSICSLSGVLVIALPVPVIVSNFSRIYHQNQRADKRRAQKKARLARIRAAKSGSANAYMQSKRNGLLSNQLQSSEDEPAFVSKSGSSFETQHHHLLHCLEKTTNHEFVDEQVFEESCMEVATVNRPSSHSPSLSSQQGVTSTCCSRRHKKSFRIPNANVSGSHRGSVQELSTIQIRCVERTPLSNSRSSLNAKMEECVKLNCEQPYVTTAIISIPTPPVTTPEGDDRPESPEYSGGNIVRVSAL
T1 sequence (Q8R426 1-216 isoform Q8R426-2 partner): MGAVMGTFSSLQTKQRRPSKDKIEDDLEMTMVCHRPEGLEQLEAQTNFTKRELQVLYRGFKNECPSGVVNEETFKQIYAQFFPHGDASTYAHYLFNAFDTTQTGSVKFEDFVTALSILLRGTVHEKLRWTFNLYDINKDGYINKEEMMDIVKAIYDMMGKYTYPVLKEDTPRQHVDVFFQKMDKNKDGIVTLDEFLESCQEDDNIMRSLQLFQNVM
Procedure: (§1) HEK 293 and CHO cells were used for recordings 1-3 days after a transient transfection. Whole-cell currents were recorded from cells expressing GFP, identified by their green fluorescence. […] After Gigaseal and ruptured whole-cell configuration access, resistance was less than 10 MOhms. Whole-cell bath solutions were made from a 10× Hank's balanced salt solution (GibcoBRL) with the following final concentration (in mM): 138 NaCl, 5.4 KCl, 1.3 MgCl2, 1.3 CaCl2, 5.5 D-Glukos and 10 HEPES, pH 7.4. The intracellular electrode solution consisted of (in mM) 140 KCl, 10 HEPES, 10 EGTA, 0.5 MgCl2, pH 7.3. All chemicals were from Sigma (St. Louis, Mo.) or Fisher Scientific (Houston, Tex.). Membrane currents were recorded using a EPC9 patch-clamp amplifier (HEKA, Germany). Data were analyzed using Matlab (Natick, Ma), and leak subtracted if necessary. All experiments were done at room temperature. […]

Kv4.2 = biological target: T2, Kv4.2 (Rattus norvegicus, UniProt Q63881); assay: AA modulation of Kv4.2 current (Kv4.2 expressed alone) in CHO cells; conditions: Kv4.2 alone, 10 μM AA
T2 construct: expressed in transfected cells; host or cells: CHO cells, transient transfection with GFP co-transfected
T2 sequence (Q63881 1-630): T1 sequence (Q63881 1-630)
Procedure: as §1

Kv1.1 = biological target: T3, Kv1.1 (Rattus norvegicus, UniProt P10499); assay: AA modulation of Kv1.1 current in Xenopus oocytes; conditions: Kv1.1 alone, 10 μM AA
T3 construct: expressed in transfected cells; host or cells: Xenopus oocytes
Procedure: Frogs underwent no more than two surgeries and surgeries were performed by well established techniques. Frogs were anesthetized with ice. Total cRNA (1-10 ng) was injected into stage IV Xenopus oocytes that were harvested the previous day. The Xenopus oocytes were incubated in ND96 containing (in mM) 96 NaCl, 2 KCl, 1.8 CaCl2, 1 MgCl2, 5 HEPES, pH 7.6, plus (Gentamycin 50 μg/ml) at 18° C. Xenopus oocytes were studied 3-7 days after injection. The two-electrode voltage-clamp recordings were performed in ND96 solution using a TURBO TEC 03 Clamp Amplifier (ALA Scientific Instruments, Westbury, N.Y.). Both electrodes were filled with 3 M KCl and had electrode resistances ranging from 0.2-1 MOhm. The current signals were filtered at 1000 Hz before transferred on a PC (Gateway, Calif.) using the PULSE software (HEKA, Germany).
In this example, the foregoing was tested by measuring two alpha/auxiliary complexes: Kv4.3/KChIP1 and Kv1.1/Kvβ1. (Kvβ1, which is one of the classic potassium channel beta subunits, dramatically changes Kv1.1 kinetics). Kv4.3/KChIP and Kv1.1/Kvβ1 were expressed respectively in Xenopus oocytes and their resulting currents were recorded in the presence or absence of […] AA. […] Kinetically, […] was much more sensitive to AA modulation than was Kv1.1/Kvβ1 (Table 4).

T3 sequence (P10499 whole entry): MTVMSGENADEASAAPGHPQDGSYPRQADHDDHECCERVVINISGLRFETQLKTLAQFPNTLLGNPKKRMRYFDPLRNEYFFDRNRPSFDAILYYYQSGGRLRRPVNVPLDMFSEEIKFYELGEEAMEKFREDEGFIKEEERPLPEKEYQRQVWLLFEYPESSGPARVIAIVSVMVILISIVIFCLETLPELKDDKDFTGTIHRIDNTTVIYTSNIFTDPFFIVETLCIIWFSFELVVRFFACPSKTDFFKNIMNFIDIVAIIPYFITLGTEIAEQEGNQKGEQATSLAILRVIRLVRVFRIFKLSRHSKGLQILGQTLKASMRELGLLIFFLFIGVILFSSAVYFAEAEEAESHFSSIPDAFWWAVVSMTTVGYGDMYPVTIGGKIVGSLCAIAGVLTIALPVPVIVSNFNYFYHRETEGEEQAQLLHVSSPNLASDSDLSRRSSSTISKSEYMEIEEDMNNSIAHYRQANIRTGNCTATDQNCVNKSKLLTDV

With `CCCCC/C=C\C/C=C\C/C=C\C/C=C\CCCC(=O)O` [arachidonic acid] the “Peak amplitude (pA ± SEM)” value (Kv4.2/KChIP1) was 2827 ± 496 pA, the “Inactivation time constant (ms ± SEM)” value (Kv4.2/KChIP1; listed as AA) was 37 ± 3 ms and the “Peak amplitude (pA ± SEM)” value (Kv4.2) was 336 ± 82 pA. The “Inactivation time constant (ms ± SEM)” value (Kv4.2; listed as AA) was 32 ± 2 ms and the “Peak amplitude (μA ± SEM)” value (Kv1.1) was 21 ± 3 μA.
